Assay results reported in patent US5026829A, “Cyclo substituted propyleneamine oxime and its use as a brain imaging agent” (University of Cincinnati, priority 1989, dated 1991).
Values belong to the compound of their own block, whether it stands above or below them.

What was measured:
[1] = Comparative in vitro stability of 99m-Tc CB-PAO and 99m-Tc HM-PAO prepared in the same vial (HPLC); assay type: physicochemical; conditions: for Stabilization: CB relative to HM; for CB/HM: ratio of CB to HM percentage; for in vitro stability, in words: 13.4 hours; for percentage of 99m-Tc complex (CB or HM): same vial, HPLC
Experimental: In order to test the in vitro stability of the 99m-Tc-CB-PAO, 99m-Tc-CB-PAOand 99m-Tc-HMPAO were prepared in the same vial. The CB-PAO and HM-PAO agents were both reacted with pertechnetate in the same vial. This insures that both compositions were subjected to the same characteristics. These were then tested using HPLC. The results showing the percentage of 99m-Tc CB-PAO (labeled CB) and 99m-Tc HM-PAO labeled HM are shown in Table 1 over a period of 0 minutes to 13.4 hours.

[2] = In vitro stability of 99m-Tc-CB-PAO after pH lowering with gentisic acid; assay type: physicochemical; conditions: about 6mM gentisic acid solution added
Experimental: The d,l isomer is then complexed with 99m-technetium to obtain a brain perfusion imaging agent. To formulate the 99m-Tc-d,l-CB-PAO 5ml of a ligand solution is placed into an evacuated 10 ml vial. The ligand solution contained approximately 0.5 mg/ml of ligand. One hundred and fifty microliters of a tin chloride solution containing 10 mg of tin chloride per 50 ml in water was added. Ten to one hundred microliters of 99m-pertechnetate sodium solution eluted from a molybdenum 99 generator is added to the vial and this is shaken for 10 seconds. An imaging solution can be immediately removed for use.
However, it is preferable that the pH of the solution which upon addition of the stanous chloride is about 8.9 be lowered. Accordingly, gentisic acid was used to lower the pH of the complex. A solution of gentisic acid was made by dissolving 0.0303g of gentisic acid and 30ml saline. 3.0 milliliters of this solution was pipetted into another vial.
An additional 30ml of saline was added. This latter vial was purged with argon for 50 minutes and sealed to yield a solution of about […] in gentisic acid. 1.0-1.2ml of the above solution was added to a 10 ml evacuated vial. 2.5 milliliters of 99m-Tc-CB-PAO previously prepared is then added to this evacuated vial. This was then tested for stability. At 15 minutes, 100% of the 99m-Tc-CB-PAO remained. At 165 minutes again 100% of the 99m-Tc-CB-PAO remained. At 18 hours 98% of the 99m-Tc-CB-PAO remained.

[3] = Renal clearance (urine collection) in normal human volunteers; assay type: in vivo
Experimental: (§1) In order to test the whole body biodistribution of the 99m-Tc CB-PAO tracer, three normal human volunteers were tested using single photon emission computed tomography. Whole body images were obtained at 15 minutes, two hours and five hours after an intraveneous injection of about 13 millicurries of Tc-99m d,l-CB-PAO. A dynamic study during the first ten minutes after administration of the tracer defined the time activity curve for brain uptake. The tomographic study was performed at one hour after administration. Venous blood samples were collected at various times up to five hours after administration and urine was collected up to 24 hours after administration.

[4] = Whole body biodistribution by single photon emission computed tomography in normal human volunteers; assay type: in vivo; conditions: intravenous, about 13 millicurries, in %
Experimental: as §1

[5] = Brain uptake, retention and tomographic brain imaging in normal human volunteers; assay type: in vivo
Experimental: as §1
The decrease in cerebral activity is only about 5% between 15 minutes and 2 hours after injection. Approximately 24% of the injected dose is cleared through the renal system within five hours and approximately 37% is cleared within 24 hours.

[6] = background statement; cited from earlier work
[7] = cited from earlier work

Stabilization ([1]; 23 min): 30% | CB/HM ([1]; 23 min): 1.85 | Stabilization ([1]; 74 min): 50% | CB/HM ([1]; 74 min): 2.04 | Stabilization ([1]; 3.3 h): 53% | CB/HM ([1]; 3.3 h): 2.11 | Stabilization ([1]; 12.2 h): 140% | CB/HM ([1]; 12.2 h): 3.29 | Stabilization ([1]; 13.4 h): 160% | CB/HM ([1]; 13.4 h): 3.58 | in vitro stability, in words [1]: most of the 99m-Tc CB-PAO remained | Stabilization ([1]; time 0): 0% | CB/HM ([1]; time 0): 1.40 | percentage of 99m-Tc complex (CB or HM) ([1]; time 0): 55.2% | 99m-Tc-CB-PAO remaining ([2]; 15 minutes): 100% | 99m-Tc-CB-PAO remaining ([2]; 165 minutes): 100% | 99m-Tc-CB-PAO remaining ([2]; 18 hours): 98% | injected dose cleared through the renal system ([3]; within 24 hours): approximately 37 % of the injected dose | injected dose cleared through the renal system ([3]; within five hours, 300 min): Approximately 24 % of the injected dose | Whole body distribution, Bladder & Urine ([4]; 15'): 4.2 ± 1.36 | Whole body distribution, Blood ([4]; 15'): 14.9 ± 0.79 | Whole body distribution, Brain ([4]; 15'): 3.6 ± 0.26 | Whole body distribution, Gallbladder ([4]; 15'): 2.2 ± 0.05 | Whole body distribution, Liver ([4]; 15'): 26.4 ± 7.1 | Whole body distribution, Lungs ([4]; 15'): 4.0 ± 0.85 | Whole body distribution, Bladder & Urine ([4]; 2h): 19.4 ± 8.4 | Whole body distribution, Blood ([4]; 2h): 8.3 ± 0.7 | Whole body distribution, Brain ([4]; 2h): 3.5 ± 0.15 | Whole body distribution, Gallbladder ([4]; 2h): 2.8 ± 0.7 | Whole body distribution, Liver ([4]; 2h): 25.4 ± 7. | Whole body distribution, Lungs ([4]; 2h): 3.1 ± 0.70 | Whole body distribution, Bladder & Urine ([4]; 5h): 23.5 ± 2.80 | Whole body distribution, Blood ([4]; 5h): 5.8 ± 0.45 | Whole body distribution, Brain ([4]; 5h): 3.5 ± 0.11 | Whole body distribution, Gallbladder ([4]; 5h): 1.7 ± 0.65 | Whole body distribution, Liver ([4]; 5h): 22.3 ± 9.5 | Whole body distribution, Lungs ([4]; 5h): 2.7 ± 0.72 | decrease in cerebral activity ([5]; between 15 minutes and 2 hours after injection): about 5% | stability of brain uptake, in words ([5]; up to five hours after injection): stable for up to five hours | injected dose taken up by the brain ([5]; within the first five minutes after intravenous injection): Approximately 3.6 % of the injected dose
Compound: CC1=[N+]([O-])[99Tc-2]23(=[O])[N](CC4(CCC4)C[N]2C(C)C(C)=[N+]3O)C1C (racemic) [99m-Tc CB-PAO]
in vitro stability compared with the prior art brain imaging agent, in words ([1]; vs 99m-Tc HM-PAO): substantially more stable in vitro than the prior art brain imaging agent | tomographic brain image quality, in words ([5]; tomographic study at one hour after administration): good definition of cerebral structures and good distinction between grey and white matter

in vitro stability, in words [1]: most of the 99m-Tc HM-PAO had decomposed | percentage of 99m-Tc complex (CB or HM) ([1]; time 0): 39.5%
Compound: C/C(=N\O)[C@@H](C)NCC(C)(C)CN[C@H](C)/C(C)=N/O [99m-Tc HM-PAO, 4,8,-diaza-3,6,6,9-tetramethyl undecane-2,10-dione bisoxime, metal not drawn]
brain passage and retention, in words [6]: passes through the blood brain barrier, is theoretically altered in some way, and remains in the brain for a period of time sufficient to obtain a successful brain image | aqueous in vitro degradation rate, in words ([7]; J. Nucl. Med. 1988): slow | time after formulation within which it must be administered ([7]; aqueous, without stabilizer, J. Nucl. Med. 1988): ≤ 30 min | time after preparation within which it must be used, in words ([7]; stabilized with gentisic acid within 30 seconds after formation): must be used within hours after preparation
